Like-named read-outs stand apart in the source and are kept apart here.
What was measured:
[1] = target: T1, Human soluble guanylate cyclase enzyme (hsGC) (Homo sapiens (Human), UniProt Q02108+Q02153); experiment: Purified human sGC enzyme activity assay; assay type: biochemical; conditions: for sGC Enzyme (fold increase at 30 μM) / sGC Enzyme (specific activity at 30 μM) / sGC Enzyme (fold increase at 30 μM without SNP): 30 μM compound
Method in brief: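 Purified human sGC (5 ng) incubated 30 min at 37° C with compound at 10 or 30 μM final in pH 8.0 Tris with 300 μM GTP, 2 mM MgCl2, 2 mM DTT and 1 mM IBMX, then stopped with cold methanol. cGMP quantified against a standard curve. Specific activity (nmol cGMP/mg sGC/min) expressed as fold-change over DMSO control.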

[2] = target: T1, Human soluble guanylate cyclase enzyme (hsGC); experiment: Purified human sGC enzyme synergy assay in the presence of 1 μM sodium nitroprusside (SNP); assay type: biochemical; conditions: for sGC Enzyme (fold increase at 30 μM with SNP): 30 μM compound; for sGC Enzyme (fold increase at 10 μM with SNP): 10 μM compound
Procedure: Human soluble guanylate cyclase enzyme (hsGC) obtained from Enzo Inc. (P/N: ALX-201-177) was used to evaluate the activity of test compounds. The assay reactions contained 0.1 M Tris (pH 8.0), 0.5 mg/mL BSA (pH 8.0), 2 mM DTT, 2 mM MgCl2, 300 μM GTP, 1 mM 3-isobutyl-1-methylxanthine (IBMX) and 5 ng human soluble guanylate cyclase enzyme. Test compounds in DMSO were then added (2 μL, 10 or 30 μM final concentration) and incubated (200 μL, 96-well plate format) at 37° C. for 30 minutes. The controls were carried out using 2 μL DMSO. After the 30 minute incubation, the reaction was stopped with the addition of 200 μL of cold methanol. The plate was then centrifuged at 3,200 rpm for 10 minutes at room temperature. Supernatants (200 μL) were collected and transferred to a new 96 well plate for analysis.
An 8 point cGMP (Sigma-Aldrich P/N: G6129) standard curve was prepared in assay buffer ranging from 0.156-20 μM. Samples for the cGMP standard curve were then diluted with an equal volume of methanol resulting in final cGMP concentrations of 0.078-10 μM.
The cGMP standard curve was generated using GraphPad Prism Software.
Calculations: Specific Activity was determined by the amount of cGMP formed (nmoles) per mg of sGC per min. Enzyme “fold-change” was calculated by dividing Specific Activity for test compounds by Specific Activity of DMSO controls.
Enzyme assays were performed as described above, but was done in the presence of 1 μM sodium nitroprusside (SNP).

[3] = target: soluble guanylate cyclase (sGC) (Homo sapiens (Human), UniProt Q02108+Q02153); experiment: sGC-HEK-cGMP assay run with SNP incubation (HEK WC assay); assay type: cell-based
soluble guanylate cyclase (sGC), sequence (Q02153 whole entry): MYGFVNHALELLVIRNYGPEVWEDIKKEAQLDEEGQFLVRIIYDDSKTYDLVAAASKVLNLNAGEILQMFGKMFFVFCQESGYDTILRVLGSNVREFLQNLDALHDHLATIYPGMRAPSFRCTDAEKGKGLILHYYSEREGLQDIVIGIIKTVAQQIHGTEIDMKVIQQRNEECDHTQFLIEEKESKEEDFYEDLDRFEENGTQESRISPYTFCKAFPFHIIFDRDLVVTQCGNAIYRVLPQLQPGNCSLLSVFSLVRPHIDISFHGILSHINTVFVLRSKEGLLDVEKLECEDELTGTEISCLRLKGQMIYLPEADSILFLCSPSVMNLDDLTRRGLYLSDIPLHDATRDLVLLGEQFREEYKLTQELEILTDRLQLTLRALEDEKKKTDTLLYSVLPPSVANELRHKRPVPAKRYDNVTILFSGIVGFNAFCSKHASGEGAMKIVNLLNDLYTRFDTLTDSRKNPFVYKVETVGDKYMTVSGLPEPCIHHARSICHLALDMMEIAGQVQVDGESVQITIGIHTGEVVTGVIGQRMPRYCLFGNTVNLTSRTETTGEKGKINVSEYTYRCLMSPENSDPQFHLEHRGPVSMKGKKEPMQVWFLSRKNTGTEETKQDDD
soluble guanylate cyclase (sGC), sequence (Q02108 whole entry): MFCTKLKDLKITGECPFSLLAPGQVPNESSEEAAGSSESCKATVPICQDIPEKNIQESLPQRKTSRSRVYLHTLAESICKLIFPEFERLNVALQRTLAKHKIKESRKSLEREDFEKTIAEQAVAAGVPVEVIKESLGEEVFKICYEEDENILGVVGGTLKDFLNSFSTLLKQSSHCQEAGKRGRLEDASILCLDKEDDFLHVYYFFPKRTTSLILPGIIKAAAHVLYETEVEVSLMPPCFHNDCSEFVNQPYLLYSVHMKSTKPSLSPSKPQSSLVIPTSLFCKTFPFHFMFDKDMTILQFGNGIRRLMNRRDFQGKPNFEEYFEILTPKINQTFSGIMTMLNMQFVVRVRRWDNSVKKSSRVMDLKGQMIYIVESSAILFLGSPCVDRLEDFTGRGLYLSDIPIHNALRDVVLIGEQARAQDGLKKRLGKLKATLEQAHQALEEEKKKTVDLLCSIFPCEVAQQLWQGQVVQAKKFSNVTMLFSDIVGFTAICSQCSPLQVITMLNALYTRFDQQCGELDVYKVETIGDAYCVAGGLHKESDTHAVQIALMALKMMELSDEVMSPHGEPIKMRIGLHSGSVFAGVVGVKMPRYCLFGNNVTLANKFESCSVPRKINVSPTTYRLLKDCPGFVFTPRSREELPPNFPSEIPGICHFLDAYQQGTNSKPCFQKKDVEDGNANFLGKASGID
Method in brief: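 HEK293 cells with endogenous sGC were pretreated with 0.5 mM IBMX for 15 min at 37 °C, then exposed to test compound plus sodium nitroprusside for 10 min at 37 °C.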

[4] = read-out: HEK WC Assay (% Emax at 10 μM/with 10 uM SNP)
[5] = read-out: HEK WC Assay (% Emax at 30 μM/with 10 uM SNP)
[6] = read-out: HEK WC Assay (% Emax at 10 uM/with 10 uM SNP)
[7] = read-out: HEK WC Assay (% Emax at 30 uM/with 10 uM SNP)

T1 sequence (Q02153 whole entry): as the sequence (Q02153 whole entry) above
T1 sequence (Q02108 whole entry): as the sequence (Q02108 whole entry) above

| SMILES | sGC Enzyme (fold increase at 30 μM) ([1]; without the addition of SNP) | sGC Enzyme (fold increase at 30 μM with SNP) ([2]; with the addition of SNP) | Emax at 10 µM [3, 4] | Emax at 30 µM [3, 5] | sGC Enzyme (specific activity at 10 μM) ([1]; 10 μM compound) | sGC Enzyme (fold increase at 10 μM without SNP) ([1]; 10 μM compound) | sGC Enzyme (specific activity at 30 μM) [1] | sGC Enzyme (fold increase at 30 μM without SNP) [1] | sGC Enzyme (fold increase at 10 μM with SNP) ([2]; with 1 μM SNP) | sGC Enzyme (fold increase at 30 μM with SNP) ([2]; with 1 μM SNP) | Emax at 10 µM [3, 6] | Emax at 30 µM [3, 7] | sGC Enzyme (fold increase at 10 μM) ([1]; 10 μM compound, without the addition of SNP) | sGC Enzyme (fold increase at 10 μM with SNP) ([2]; with the addition of SNP) |
| --- | --- | --- | --- | --- | --- | --- | --- | --- | --- | --- | --- | --- | --- | --- |
| Nc1nc(-c2cc(-c3ccon3)n(Cc3ccccc3F)n2)ncc1C(F)(F)F [Compound I-113] | A (A = no increase to <2 fold increase) | C (C = 5 to <10 fold increase) | 20 to 40% | 40 to 60% |  |  |  |  |  |  |  |  |  |  |
| CC(C)c1cc(-c2ccccn2)nn1Cc1ccccc1F [Compound I-47] |  |  |  |  | D (D = 200 to <500) | A (A = no increase to <2 fold increase) | D (D = 200 to <500) | B (B = 2 to <5 fold increase) | B (B = 2 to <5 fold increase) | B (B = 2 to <5 fold increase) | 0 to 10% | 0 to 10% |  |  |
| Nc1cc(-c2cccnc2)nc(-c2cc(-c3ccon3)n(Cc3ccccc3F)n2)n1 [Compound I-116] | B (B = 2 to <5 fold increase) | C (C = 5 to <10 fold increase) | 20 to 40% | 20 to 40% |  |  |  |  |  |  |  |  |  |  |
| Oc1cccc(-c2cc(-c3ccccn3)nn2Cc2ccccc2F)n1 [Compound I-79, 6-(1-(2-fluorobenzyl)-3-(pyridin-2-yl)-1H-pyrazol-5-yl)pyridin-2-ol] | A (A = no increase to <2 fold increase) | A (A = no increase to <2 fold increase) | 0 to 10% | 0 to 10% |  |  |  |  |  |  |  |  | A (A = no increase to <2 fold increase) | A (A = no increase to <2 fold increase) |
| Cc1nc2c(N)nc(-c3cc(-c4nccs4)n(Cc4ccccc4F)n3)nc2[nH]1 [Compound I-95] | A (A = no increase to <2 fold increase) | C (C = 5 to <10 fold increase) | 10 to 20% | 20 to 40% |  |  |  |  |  |  |  |  |  |  |
| Cc1cccc(-c2cc(-c3ncccn3)n(Cc3ccccc3F)n2)n1 [Compound I-81, 2-(1-(2-fluorobenzyl)-3-(6-methylpyridin-2-yl)-1H-pyrazol-5-yl)pyrimidine] | A (A = no increase to <2 fold increase) | A (A = no increase to <2 fold increase) | 0 to 10% | 0 to 10% |  |  |  |  |  |  |  |  |  |  |
| CCOC(=O)c1cnc(-c2cc(-c3ccon3)n(Cc3ccccc3F)n2)nc1N [Compound I-131] | B (B = 2 to <5 fold increase) | D (D = 10 to <30 fold increase) | 60 to 80% | 40 to 60% |  |  |  |  |  |  |  |  |  |  |
| Fc1ccccc1Cn1nc(-c2ccccn2)cc1-c1nnn[nH]1 [Compound I-43] |  |  |  |  | C (C = 100 to <200) | A (A = no increase to <2 fold increase) | C (C = 100 to <200) | A (A = no increase to <2 fold increase) | A (A = no increase to <2 fold increase) | A (A = no increase to <2 fold increase) | 0 to 10% | 0 to 10% |  |  |
| COC(=O)Nc1c(N)nc(-c2cc(-c3nccs3)n(Cc3ccccc3F)n2)nc1N [Compound I-93] | B (B = 2 to <5 fold increase) | C (C = 5 to <10 fold increase) | 10 to 20% | 20 to 40% |  |  |  |  |  |  |  |  |  |  |
| CS(=O)(=O)c1cnc(-c2cc(-c3ccon3)n(Cc3ccccc3F)n2)nc1N [Compound I-120] | A (A = no increase to <2 fold increase) | C (C = 5 to <10 fold increase) | 0 to 10% | 0 to 10% |  |  |  |  |  |  |  |  |  |  |
